In the NIST ThermoML archive (doi:10.1021/je501178z):
Where “and” joins values, the source holds several entries; their conditions need not be identical. Equal values may be shown once. ± gives the expanded uncertainty stated by the source.

Assay: mn = molality of the nth substance listed, in mol/kg
Conditions: 101.3 kPa, Liquid; for viscosity: Capillary tube (Ostwald / Ubbelohde) method; for mass density: Vibrating tube method

NCC(=O)O [2-aminoacetic acid] + O
Conditions	mass density, 293.15 K [kg/m3]	mass density, 303.15 K [kg/m3]	mass density, 313.15 K [kg/m3]	mass density, 323.15 K [kg/m3]	viscosity, 293.15 K [mPa·s]	viscosity, 303.15 K [mPa·s]	viscosity, 313.15 K [mPa·s]	viscosity, 323.15 K [mPa·s]
m1 = 0.1002	1001.41 ± 0.15	998.8 ± 0.15	–	991.11 ± 0.15	1.015 ± 0.021	0.809 ± 0.017	0.663 ± 0.014	0.555 ± 0.012
m1 = 0.2	1004.57 ± 0.15	1001.91 ± 0.15	–	994.14 ± 0.15	1.029 ± 0.022	0.82 ± 0.017	0.672 ± 0.014	0.563 ± 0.012
m1 = 0.3002	1007.7 ± 0.15	1004.98 ± 0.15	1001.42 ± 0.15	997.14 ± 0.15	1.042 ± 0.022	0.831 ± 0.018	0.681 ± 0.014	0.571 ± 0.012
m1 = 0.4001	1010.77 ± 0.15	1008 ± 0.15	1004.4 ± 0.15	1000.09 ± 0.15	1.057 ± 0.022	0.842 ± 0.018	0.691 ± 0.015	0.579 ± 0.012
m1 = 0.5001	1013.8 ± 0.15	1010.98 ± 0.15	1007.35 ± 0.15	1003.01 ± 0.15	1.072 ± 0.023	0.855 ± 0.018	0.701 ± 0.015	0.587 ± 0.012
m1 = 0.6	1016.78 ± 0.16	1013.91 ± 0.15	1010.25 ± 0.15	1005.88 ± 0.15	1.086 ± 0.023	0.867 ± 0.018	0.711 ± 0.015	0.596 ± 0.013
m1 = 0.6998	1019.71 ± 0.16	1016.8 ± 0.16	1013.11 ± 0.15	1008.72 ± 0.15	1.101 ± 0.023	0.878 ± 0.018	0.721 ± 0.015	0.605 ± 0.013

C[C@H](N)C(=O)O [(S)-2-aminopropanoic acid] + O
Conditions	mass density, 293.15 K [kg/m3]	mass density, 303.15 K [kg/m3]	mass density, 313.15 K [kg/m3]	mass density, 323.15 K [kg/m3]	viscosity, 293.15 K [mPa·s]	viscosity, 303.15 K [mPa·s]	viscosity, 313.15 K [mPa·s]	viscosity, 323.15 K [mPa·s]
m1 = 0.1	1001.06 ± 0.18	998.48 ± 0.18	995.01 ± 0.18	990.81 ± 0.18	1.027 ± 0.022	0.817 ± 0.017	0.668 ± 0.014	0.559 ± 0.012
m1 = 0.2	1003.88 ± 0.18	1001.27 ± 0.18	997.76 ± 0.18	993.55 ± 0.18	1.053 ± 0.022	0.837 ± 0.018	0.684 ± 0.015	0.571 ± 0.012
m1 = 0.3	1006.66 ± 0.18	1004.01 ± 0.18	1000.47 ± 0.18	996.24 ± 0.18	1.079 ± 0.023	0.856 ± 0.018	0.7 ± 0.015	0.584 ± 0.012
m1 = 0.4002	1009.39 ± 0.18	1006.71 ± 0.18	1003.14 ± 0.18	998.9 ± 0.18	1.107 ± 0.023	0.877 ± 0.019	0.715 ± 0.015	0.596 ± 0.013
m1 = 0.5001	1012.06 ± 0.18	1009.35 ± 0.18	1005.76 ± 0.18	1001.5 ± 0.18	1.134 ± 0.024	0.897 ± 0.019	0.731 ± 0.016	0.609 ± 0.013
m1 = 0.6002	1014.69 ± 0.18	1011.95 ± 0.18	1008.33 ± 0.18	1004.06 ± 0.18	1.163 ± 0.025	0.919 ± 0.019	0.749 ± 0.016	0.622 ± 0.013
m1 = 0.6999	1017.27 ± 0.18	1014.5 ± 0.18	1010.86 ± 0.18	1006.58 ± 0.18	1.191 ± 0.025	0.94 ± 0.02	0.765 ± 0.016	0.635 ± 0.013

OC[C@@H](O)[C@@H](O)[C@H](O)[C@H](O)CO [D-mannitol] + O
Conditions	mass density, m1 = 0.2 [kg/m3]	mass density, m1 = 0.4	mass density, m1 = 0.6 [kg/m3]	mass density, m1 = 0.8 [kg/m3]	mass density, m1 = 1 [kg/m3]	viscosity, m1 = 0.2 [mPa·s]	viscosity, m1 = 0.4	viscosity, m1 = 0.6 [mPa·s]	viscosity, m1 = 0.8 [mPa·s]	viscosity, m1 = 1
293.15 K	1010.52 ± 0.15	1022.31 ± 0.16 kg/m3	1033.43 ± 0.16	1043.98 ± 0.16	1054.13 ± 0.17	1.104 ± 0.023	1.221 ± 0.026 mPa·s	1.336 ± 0.028	1.494 ± 0.031	1.643 ± 0.034 mPa·s
303.15 K	1007.82 ± 0.15	1019.39 ± 0.16 kg/m3	1030.35 ± 0.16	1040.88 ± 0.16	1050.85 ± 0.17	0.874 ± 0.018	0.959 ± 0.02 mPa·s	1.044 ± 0.022	1.151 ± 0.024	1.262 ± 0.026 mPa·s
313.15 K	1004.26 ± 0.15	1015.71 ± 0.18 kg/m3 and 1015.74 ± 0.16 kg/m3	1026.6 ± 0.16	1036.92 ± 0.16	1046.79 ± 0.17	0.711 ± 0.015	0.775 ± 0.016 mPa·s and 0.776 ± 0.016 mPa·s	0.841 ± 0.018	0.917 ± 0.019	1.001 ± 0.021 mPa·s and 1 ± 0.021 mPa·s
323.15 K	999.96 ± 0.15	1011.28 ± 0.15 kg/m3	1022.09 ± 0.16	1032.28 ± 0.16	1042.15 ± 0.16	0.592 ± 0.013	0.642 ± 0.014 mPa·s	0.693 ± 0.015	0.752 ± 0.016	0.814 ± 0.017 mPa·s

N=C(N)NCCC[C@H](N)C(=O)O [L-arginine] + O
Conditions	mass density, 293.15 K [kg/m3]	mass density, 303.15 K [kg/m3]	mass density, 313.15 K [kg/m3]	mass density, 323.15 K [kg/m3]	viscosity, 293.15 K [mPa·s]	viscosity, 303.15 K [mPa·s]	viscosity, 313.15 K [mPa·s]	viscosity, 323.15 K [mPa·s]
m1 = 0.1	1003.17 ± 0.27	1000.55 ± 0.27	997.05 ± 0.27	992.84 ± 0.27	1.054 ± 0.023	0.838 ± 0.018	0.685 ± 0.015	0.572 ± 0.012
m1 = 0.2	1008 ± 0.27	1005.3 ± 0.27	1001.75 ± 0.27	997.5 ± 0.27	1.108 ± 0.024	0.879 ± 0.019	0.717 ± 0.015	0.598 ± 0.013
m1 = 0.3001	1012.68 ± 0.28	1009.91 ± 0.27	1006.31 ± 0.27	1002.03 ± 0.27	1.167 ± 0.025	0.923 ± 0.02	0.751 ± 0.016	0.625 ± 0.014
m1 = 0.4	1017.21 ± 0.28	1014.38 ± 0.28	1010.73 ± 0.28	1006.41 ± 0.27	1.23 ± 0.026	0.97 ± 0.021	0.788 ± 0.017	0.654 ± 0.014
m1 = 0.5	1021.6 ± 0.28	1018.71 ± 0.28	1015.01 ± 0.28	1010.67 ± 0.27	1.298 ± 0.028	1.021 ± 0.022	0.826 ± 0.018	0.684 ± 0.015
m1 = 0.6	1025.86 ± 0.29	1022.9 ± 0.29	1019.15 ± 0.28	1014.8 ± 0.28	1.362 ± 0.029	1.069 ± 0.023	0.864 ± 0.019	0.714 ± 0.015
m1 = 0.7	1030 ± 0.29	1026.97 ± 0.29	1023.18 ± 0.29	1018.82 ± 0.28	1.435 ± 0.031	1.124 ± 0.024	0.905 ± 0.019	0.747 ± 0.016

C[C@@H](O)[C@H](N)C(=O)O [L-threonine] + O
Conditions	mass density, 293.15 K [kg/m3]	mass density, 303.15 K [kg/m3]	mass density, 313.15 K [kg/m3]	mass density, 323.15 K [kg/m3]	viscosity, 293.15 K [mPa·s]	viscosity, 303.15 K [mPa·s]	viscosity, 313.15 K [mPa·s]	viscosity, 323.15 K [mPa·s]
m1 = 0.0999	1002.41 ± 0.18	999.81 ± 0.18	996.32 ± 0.18	992.11 ± 0.18	1.035 ± 0.022	0.823 ± 0.017	0.673 ± 0.014	0.562 ± 0.012
m1 = 0.1999	1006.56 ± 0.18	1003.9 ± 0.18	1000.37 ± 0.18	996.12 ± 0.18	1.072 ± 0.023	0.849 ± 0.018	0.693 ± 0.015	0.579 ± 0.012
m1 = 0.2999	1010.63 ± 0.18	1007.92 ± 0.18	1004.34 ± 0.18	1000.05 ± 0.18	1.107 ± 0.023	0.876 ± 0.019	0.714 ± 0.015	0.595 ± 0.013
m1 = 0.4002	1014.64 ± 0.18	1011.87 ± 0.18	1008.25 ± 0.18	1003.93 ± 0.18	1.145 ± 0.024	0.905 ± 0.019	0.736 ± 0.016	0.613 ± 0.013
m1 = 0.5	1018.55 ± 0.18	1015.73 ± 0.18	1012.07 ± 0.18	1007.71 ± 0.18	1.184 ± 0.025	0.934 ± 0.02	0.759 ± 0.016	0.63 ± 0.013
m1 = 0.6	1022.4 ± 0.19	1019.52 ± 0.18	1015.83 ± 0.18	1011.44 ± 0.18	1.225 ± 0.026	0.965 ± 0.02	0.782 ± 0.017	0.649 ± 0.014
m1 = 0.6998	1026.16 ± 0.19	1023.24 ± 0.19	1019.52 ± 0.18	1015.1 ± 0.18	1.269 ± 0.027	0.996 ± 0.021	0.806 ± 0.017	0.667 ± 0.014

CC(C)[C@H](N)C(=O)O [L-valine] + O
Conditions	mass density, m1 = 0.1 [kg/m3]	mass density, m1 = 0.2001 [kg/m3]	mass density, m1 = 0.3001 [kg/m3]	mass density, m1 = 0.4002 [kg/m3]	mass density, m1 = 0.5 [kg/m3]	viscosity, m1 = 0.1 [mPa·s]	viscosity, m1 = 0.2001 [mPa·s]	viscosity, m1 = 0.3001 [mPa·s]	viscosity, m1 = 0.4002 [mPa·s]	viscosity, m1 = 0.5 [mPa·s]
293.15 K	1000.88 ± 0.18	1003.51 ± 0.18	1006.08 ± 0.18	1008.6 ± 0.18	1011.05 ± 0.18	1.044 ± 0.022	1.089 ± 0.023	1.135 ± 0.024	1.184 ± 0.025	1.233 ± 0.026
303.15 K	998.29 ± 0.18	1000.88 ± 0.18	1003.41 ± 0.18	1005.89 ± 0.18	1008.31 ± 0.18	0.829 ± 0.018	0.862 ± 0.018	0.896 ± 0.019	0.929 ± 0.02	0.965 ± 0.02
313.15 K	994.81 ± 0.18	997.37 ± 0.18	999.88 ± 0.18	1002.33 ± 0.18	1004.72 ± 0.18	0.678 ± 0.014	0.702 ± 0.015	0.728 ± 0.015	0.753 ± 0.016	0.779 ± 0.017
323.15 K	990.6 ± 0.18	993.11 ± 0.18	995.57 ± 0.18	997.98 ± 0.18	1000.34 ± 0.18	0.565 ± 0.012	0.585 ± 0.012	0.604 ± 0.013	0.624 ± 0.013	0.644 ± 0.014
